Experiment [1] has as its system ob/ob mice. Briefly: Physiological measurements during leptin treatment of ob/ob mice. It counts as in vivo, mouse. Here is the method: (§1) Having witnessed the behavior of individual islets in response to food over-consumption and insulin resistance, we next questioned if this growth could be refrained or even reversed by treating the ob/ob mice with leptin. Mice were injected intraperitoneally every day between 3 and 4 months of age. The physiological effects of this treatment were monitored regularly using different parameters.
Leptin treatment was performed by daily intraperitoneal injections of 1.5 μg/g body weight of recombinant human leptin (Amylin Pharmaceuticals), and sham treatment was performed by intraperitoneal injection of water instead of leptin.
(§2) Body weight and blood glucose levels were measured in a minimum of 7 mice. Glucose concentrations were obtained using Accu-Chek™ Aviva monitoring system (Roche). Glucose tolerance tests were performed by intraperitoneal injection of 2 mg glucose per gram body weight in mice fasted for 16 hours (n≥5). Plasma insulin concentrations from a minimum of 3 mice per condition were measured using mouse insulin ELISA plates (Mercodia). Leptin treatment was performed by daily intraperitoneal injections of 1.5 μg/g body weight of recombinant human leptin (Amylin Pharmaceuticals), and sham treatment was performed by intraperitoneal injection of water instead of leptin.

In experiment [2] the test system is ob/ob mice. Briefly: Intraperitoneal glucose tolerance test after leptin treatment. It counts as in vivo, mouse. The protocol:
as §1, §2

In experiment [3] the test system is islet grafts in the anterior chamber of the eye of ob/ob mice. Briefly: Longitudinal in vivo confocal imaging of intraocular islet grafts under leptin treatment. On the set-up: species or system mouse.
Excerpt: (§3) Islet grafts in mice were imaged in vivo at specific time points after transplantation. We used an upright laser scanning confocal microscope based on TCS-SP2-AOBS (Leica) with a long-distance water-dipping objective (Leica HXC-APO 10×/0.30NA), and a custom-built stereotaxic head holder allowing to position the mouse eye containing the engrafted islets towards the objective. Viscotears (Novartis) was used as immersion liquid between the eye and the objective, and isoflurane was used to anesthetize the mice during in vivo imaging. Imaging of islet morphology was done by laser illumination at 633 nm, and collection of backscattered light at the same wavelength.
Islets were isolated from female donor mice and transplanted into the anterior chamber of the eye of male recipients, using a previously described technique (2). We anesthetized mice using isoflurane (Baxter), and approximately 10-20 islets were transplanted into the anterior chamber of the mouse eye. Islets used for transplantation were selected to be of similar size for each experiment, independent of the mouse genotype. The mice were injected subcutaneously with Temgesic™ (Schering-Plough) for postoperative analgesia.
as §3, with “transplantation as previously described (2).” for “transplantation.”, “Viscotears™” for “Viscotears”, “wavelength. For visualization of blood vessels we injected 100 μl of a solution containing 2.5 mg/ml of 500 kDa FITC-labeled dextran (Invitrogen) into the tail vein, and imaged fluorescence using 496 nm excitation wavelength. Scanning speed and laser intensities were adjusted to avoid any cellular damage to the mouse eye or islet graft.” for “wavelength.”
AutoQuant X2 (Media Cybernetics) was used for blind deconvolution of all in vivo confocal images before image analysis. Islet volume was analyzed based on the backscatter signal channel, using Matlab™ and the Image Processing Toolbox (Mathworks). The islet “equatorial volume”, i.e. the volume from the top of the islet down to the calculated equator, was used to represent the volume and calculate islet growth. We analyzed a minimum of 3 islet grafts per animal to determine islet growth, with a minimum of 3 mice per category. Individual vessel segments were identified at different imaging time points and their diameter measured using Volocity™ (Perkin Elmer). We established image analysis protocols in Volocity™ for automated analysis of histological sections. The average beta cell section area was obtained by dividing the insulin-stained area by the total number of DAPI-stained nuclei enclosed in this area (minimum of 1000 cells per tissue). Beta cell proliferation rate was obtained by counting Ki67-positive nuclei and dividing by the total number of DAPI-stained nuclei in insulin-positive cells (minimum of 10000 cells per transplanted eye or pancreas). Volocity™ was used for image display and Photoshop CS5 (Adobe) for image assembly.

Experiment [4] has as its system beta cells of ob/ob mouse islets. Briefly: Immunohistochemistry of transplanted eye and pancreas sections after leptin treatment. It counts as in vivo. The note with it: for proliferation of beta cells (insulin and Ki67 staining): end of leptin treatment. Here is the method:
Dissected tissues were briefly rinsed with PBS, fixed for 48 h at room temperature using formalin, and dehydrated and embedded in paraffin. Five-micron thick sections mounted on precoated microscope slides were dewaxed by xylene and progressively rehydrated before processing. Insulin was stained using chicken anti-insulin (1:200 dilution, Abcam) followed by goat anti-chicken Alexa™ 488 (1:1000 dilution, Invitrogen) antibodies; blood vessels were stained using rat anti-mouse CD31 (1:50 dilution, BD Pharmingen), followed by incubation of biotinylated goat anti-rat (5 μg/ml, Vector Labs) and amplification with HRP-streptavidin/Alexa™ 647-tyramide (Invitrogen); proliferation was assessed by using mouse anti-human Ki67 (1:50 dilution, Novocastra) together with M.O.M. biotinylated anti-mouse IgG (Vector Labs), and amplified using HRP-streptavidin/Alexa 647-tyramide. Nuclei were stained and slides were preserved by cover glass mounting using ProLong™ Gold Antifade Reagent with DAPI (Invitrogen). Slides were imaged using a BD Pathway 855 system (BD Biosciences). Insulin, CD31, Ki67 and DAPI stainings were imaged using a 20×/0.75NA UApo/340 Olympus objective, and overviews of pancreatic sections stained by hematoxylin/eosin were obtained by montage capture mode using a 4×/0.16NA UPlan SApo Olympus objective.
AutoQuant X2 (Media Cybernetics) was used for blind deconvolution of all in vivo confocal images before image analysis. Islet volume was analyzed based on the backscatter signal channel, using Matlab™ and the Image Processing Toolbox (Mathworks). The islet “equatorial volume”, i.e. the volume from the top of the islet down to the calculated equator, was used to represent the volume and calculate islet growth. We analyzed a minimum of 3 islet grafts per animal to determine islet growth, with a minimum of 3 mice per category. Individual vessel segments were identified at different imaging time points and their diameter measured using Volocity™ (Perkin Elmer). We established image analysis protocols in Volocity™ for automated analysis of histological sections. […]

[5] abbreviates: daily i.p. leptin 1.5 μg/g, during treatment.

Entries after “also recorded” stand apart in the source; their conditions may differ.

“leptin: recombinant human leptin (Amylin Pharmaceuticals), hormone encoded by the ob gene”: in the experiment with ob/ob mice [1] (after end of leptin treatment, mass similar to untreated ob/ob about one month later), the “body weight after the end of the treatment period” value was “rapidly increased”. For the same substance, the body weight result in the experiment with ob/ob mice [1] (daily i.p. leptin 1.5 μg/g between 3 and 4 months of age, during treatment) is on record as “decrease”. The blood glucose entry in the experiment with ob/ob mice [1] (setting [5]) was “decrease”. Also, the “insulin concentrations (plasma)” value in the experiment on ob/ob mice [1] (setting [5]) was “decrease”. In the experiment on ob/ob mice [1] (daily i.p. leptin, during treatment), the appetite entry was “visibly reduced”. In addition, the “glucose handling in intraperitoneal glucose tolerance test (glucose excursions, AUC)” value with ob/ob mice [2] (ob/ob mice at end of treatment period, 2 mg glucose/g i.p., 16 h fasted) is given as “normalized; also recorded: glucose excursions similar to those obtained from age-matched control mice”. The insulin sensitivity result in the experiment on ob/ob mice [2] (ob/ob mice, end of leptin treatment) is given as “beneficial impact”. Moreover, the “islet growth after the end of treatment” value in experiment [3] (ob/ob mice, after end of leptin or sham treatment) is on record as “no difference in islet growth”. In addition, the “islet growth (islet volume) of islet transplants” value in experiment [3] (ob/ob mice, during leptin treatment versus sham treatment) was “reversal of islet growth; also recorded: abolished and partially reversed”. Moreover, in experiment [3] (ob/ob mice, early stage after leptin treatment), the “angiogenesis in the islet grafts” value is listed as “could observe angiogenesis”. In addition, in experiment [3] (ob/ob mice, leptin treatment, dextran-FITC imaging), the “vessel diameter in islet grafts” value was “rapid effect on blood vessel diameters; also recorded: decrease”. Also, the “granulation of islet cells (reflective optical properties, backscatter)” value in experiment [3] (transplanted islets in leptin-treated ob/ob mice) is “regranulation”. Further, the “proliferation of beta cells (insulin and Ki67 staining)” value in experiment [4] (engrafted islets (transplanted eye)) and in experiment [4] (in situ pancreatic islets) was “attenuated; also recorded: virtually abolished” each time. Moreover, the “average beta cell size” value in experiment [4] (following leptin treatment, transplanted or endogenous pancreatic islets, versus age-matched untreated control mice) is given as “no significant difference compared to age-matched untreated control mice”.

(Values after patent US12584904B2, “Methods for monitoring physiological status of a body organ” (BioCrine AB, priority 2012, dated 2026).)
